Laboratory results: PubChem BioAssay (NCI)
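Step 1: Grow cells in 96-well plates. Step 2: Expose to compound for 48 hours at 5 concentrations. Step 3: Interpolate endpoints linearly; if unreached, use highest concentration. Definition used: TGI = concentration required for complete inhibition of growth.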

How the values were obtained:
Experiment in all cases: growth of human tumour cells (NCI), 48 h
[1] = system: HOP-92 NSCLC
[2] = system: HOP-62 NSCLC
[3] = system: IGROV1 ovarian
[4] = system: MDA-N
[5] = system: EKVX NSCLC
[6] = system: SK-OV-3 ovarian
[7] = system: SK-MEL-5 melanoma
[8] = system: DU-145 prostate
[9] = system: SK-MEL-28 melanoma
[10] = system: MCF7 breast
[11] = system: OVCAR-8 ovarian
[12] = system: PC-3 prostate
[13] = system: HCT-15 colon
[14] = system: MDA-MB-435
[15] = system: UACC-62 melanoma
[16] = system: SW-620 colon
[17] = system: HCC-2998 colon
[18] = system: TK-10 renal
[19] = system: RPMI-8226 leukemia
[20] = system: SN12C renal
[21] = system: SNB-19 CNS
[22] = system: CAKI-1 renal
[23] = system: SF-268 CNS
[24] = system: NCI-H23 lung
[25] = system: SR leukemia
[26] = system: MDA-MB-231 breast
[27] = system: OVCAR-4 ovarian
[28] = system: A549 NSCLC
[29] = system: SNB-75 CNS
[30] = system: LOX IMVI melanoma
[31] = system: MOLT-4 leukemia
[32] = system: HT29 colon
[33] = system: BT-549 breast
[34] = system: NCI/ADR-RES ovarian
[35] = system: CCRF-CEM leukemia
[36] = system: NCI-H460 lung
[37] = system: SF-539 CNS
[38] = system: KM12 colon
[39] = system: SK-MEL-2 melanoma
[40] = system: ACHN renal
[41] = system: K-562 leukemia
[42] = system: NCI-H522 lung
[43] = system: UACC-257 melanoma
[44] = system: COLO 205 colon
[45] = system: HS 578T breast
[46] = system: SF-295 CNS
[47] = system: M14 melanoma
[48] = system: U251 CNS
[49] = system: HL-60(TB) leukemia
[50] = system: NCI-H226 lung
[51] = system: UO-31 renal
[52] = system: T-47D breast
[53] = system: OVCAR-3 ovarian
[54] = system: A498 renal
[55] = system: OVCAR-5 ovarian
[56] = system: 786-0 renal
[57] = system: HCT-116 colon
[58] = system: RXF 393 renal

Measured: TGI

COC(=O)C(CCC1CC(OC)N(C(=O)OCc2ccccc2)C1)N=Cc1ccccc1 (stereo not drawn)
83.9 µM: [7]
91.7 µM: [19]
78.7 µM: [44]
72.9 µM: [42]
78.8 µM: [39]
> 100 µM: all other assays above
